Reference: US4015974A, “Amido phosphorothiolates” (priority 1972, dated 1977)

Assays:
Format in all cases: in vivo
[1] = test system: large crabgrass (Digitaria sanguinalis); assay: Pre-emergence application, herbicidal effect on large crabgrass (Table 1); set-up: key: 0: not damaged; 5: completely killed; conditions: 20 days after application, score 0-5
Description: (§1) Seeds of barnyard grass (Echinochloa crus-galli) and large crabgrass (Digitaria sanguinalis) as representatives of grassy weeds and those of radish, redroot pigweed (Amaranthus retroflexus), common purslane (Portulaca oleracea) and common lambsquarter (Chenopodium album) as representatives of broad-leaved weeds were individually sowed in flower pots of about 10 cm. in diameter. After covering the seeds with soil, test compounds as shown in Table 1 were individually applied to the soil treatment. Thereafter the plants were grown in a green house and 20 days after application the herbicidal effects of the compounds were observed, the results of which are as shown in Table 1.
(§2) Herbicidal effects were evaluated by the numerals ranging from 0 (not damaged) to 5 (completely killed). All the test compounds were used in the form of wettable powder and diluted with water before application.

[2] = test system: barnyard grass (Echinochloa crus-galli); assay: Pre-emergence application, herbicidal effect on barnyard grass (Table 1); set-up: key: 0: not damaged; 5: completely killed; conditions: 20 days after application, score 0-5
Description: as §1, §2

[3] = test system: rice; assay: Water application, phytotoxicity on rice (Table 2); set-up: key: 0: no effect; 1: very slightly affected; 2: slightly affected; 3: moderately affected; 4: considerably affected; 5: completely killed; conditions: 25 days, score 0-5
Description: (§3) Wagner pots of 14 cm. in diameter, which had been packed with 1.5 kg. of paddy field soil, were brought into the state of paddy fields. To the pots were transplanted rice seedlings at the 3-leave stage. Further, seeds of barnyard grass (Echinochloa crus-galli) were sowed in the pots and required amounts of test compounds were applied to the soil under water lodged condition. 25 days after application, the degrees of herbicidal activity and phytotoxity were investigated on above-mentioned plants which had been transplanted and sowed, and on broad-leaved weeds, e.g., monochoria (Monochoria viaginalis Presl.), false pimpernel (Linderna pyxidaria) and toothcup (Rotala indica Koehue), which had been spontaneously germinated. The test compounds were used in the form of wettable powder. The herbicidal effects and the phytotoxity were evaluated as follows by the numerals ranging from 0 to 5.

[4] = test system: broad-leaved weeds, e.g., monochoria, false pimpernel and toothcup; assay: Water application, herbicidal effect on broad-leaved weeds (Table 2); set-up: key: 0: not damaged; 5: completely killed; conditions: 25 days, score 0-5
Description: as §3

[5] = test system: redroot pigweed (Amaranthus retroflexus); assay: Pre-emergence application, herbicidal effect on redroot pigweed (Table 1); set-up: key: 0: not damaged; 5: completely killed; conditions: 20 days after application, score 0-5
Description: as §1, §2

[6] = test system: common purslane (Portulaca oleracea); assay: Pre-emergence application, herbicidal effect on common purslane (Table 1); set-up: key: 0: not damaged; 5: completely killed; conditions: 20 days after application, score 0-5
Description: as §1, §2

[7] = test system: common lambsquarter (Chenopodium album); assay: Pre-emergence application, herbicidal effect on common lambsquarter (Table 1); set-up: key: 0: not damaged; 5: completely killed; conditions: 20 days after application, score 0-5
Description: as §1, §2

[8] = test system: barnyard grass (Echinochloa crus-galli); assay: Water application, herbicidal effect on barnyard grass (Table 2); set-up: key: 0: not damaged; 5: completely killed; conditions: 25 days, score 0-5
Description: as §3

[9] = test system: radish; assay: Pre-emergence application, herbicidal effect on radish (Table 1); set-up: key: 0: not damaged; 5: completely killed; conditions: 20 days after application, score 0-5
Description: as §1, §2

SMILES | Herbicidal effect, large crabgrass ([1]; 10 g./a.) | Herbicidal effect, large crabgrass ([1]; 20 g./a.) | Herbicidal effect, large crabgrass ([1]; 40 g./a.) | Herbicidal effect, barnyard grass ([2]; 10 g./a.) | Herbicidal effect, barnyard grass ([2]; 20 g./a.) | Herbicidal effect, barnyard grass ([2]; 40 g./a.) | Phytotoxicity on rice ([3]; 10 g/a) | Phytotoxicity on rice ([3]; 20 g/a) | Phytotoxicity on rice ([3]; 40 g/a) | Herbicidal effects, broad-leaved weeds ([4]; 10 g/a) | Herbicidal effects, broad-leaved weeds ([4]; 20 g/a) | Herbicidal effects, broad-leaved weeds ([4]; 40 g/a) | Herbicidal effect, redroot pigweed ([5]; 10 g./a.) | Herbicidal effect, redroot pigweed ([5]; 20 g./a.) | Herbicidal effect, redroot pigweed ([5]; 40 g./a.) | Herbicidal effect, common purslane ([6]; 10 g./a.) | Herbicidal effect, common purslane ([6]; 20 g./a.) | Herbicidal effect, common purslane ([6]; 40 g./a.) | Herbicidal effect, common lambsquarter ([7]; 10 g./a.) | Herbicidal effect, common lambsquarter ([7]; 20 g./a.) | also measured
CCCCOP(=O)(SCC(=O)N1CCCCC1C)SCc1ccc(C)cc1 (stereo not drawn) [Compound 56] | 4 | 5 | 5 | 5 | 5 | 5 | 0 | 0 | 0 | 5 | 5 | 5 | 3 | 3 | 5 | 3 | 3 | 4 | 3 | 4 | Herbicidal effect, common lambsquarter ([7]; 40 g./a.): 5; Herbicidal effects, barnyard grass ([8]; 10 g/a): 5; Herbicidal effects, barnyard grass ([8]; 20 g/a): 5; Herbicidal effects, barnyard grass ([8]; 40 g/a): 5; Herbicidal effect, radish ([9]; 10 g./a.): 0; Herbicidal effect, radish ([9]; 20 g./a.): 0; Herbicidal effect, radish ([9]; 40 g./a.): 0
CCCCCCSP(=O)(OCC)SCC(=O)N1CCCCC1C (stereo not drawn) [Compound 62] | 4 | 5 | 5 | 4 | 5 | 5 | 0 | 0 | 0 | 5 | 5 | 5 | 3 | 4 | 5 | 3 | 4 | 5 | 4 | 4 | Herbicidal effect, common lambsquarter ([7]; 40 g./a.): 5; Herbicidal effects, barnyard grass ([8]; 10 g/a): 5; Herbicidal effects, barnyard grass ([8]; 20 g/a): 5; Herbicidal effects, barnyard grass ([8]; 40 g/a): 5; Herbicidal effect, radish ([9]; 10 g./a.): 0; Herbicidal effect, radish ([9]; 20 g./a.): 0; Herbicidal effect, radish ([9]; 40 g./a.): 0
CCOP(=O)(SCC(=O)N1CCCCC1C)SC(C)c1ccccc1 (stereo not drawn) [Compound 64] | 4 | 5 | 5 | 4 | 5 | 5 | 0 | 0 | 0 | 5 | 5 | 5 | 3 | 3 | 4 | 3 | 3 | 4 | 3 | 4 | Herbicidal effect, common lambsquarter ([7]; 40 g./a.): 4; Herbicidal effects, barnyard grass ([8]; 10 g/a): 5; Herbicidal effects, barnyard grass ([8]; 20 g/a): 5; Herbicidal effects, barnyard grass ([8]; 40 g/a): 5; Herbicidal effect, radish ([9]; 10 g./a.): 0; Herbicidal effect, radish ([9]; 20 g./a.): 0; Herbicidal effect, radish ([9]; 40 g./a.): 0
CCCOP(=O)(SC)SCC(=O)N1CCCCC1C (stereo not drawn) [Compound 66] | 5 | 5 | 5 | 5 | 5 | 5 | 0 | 0 | 0 | 5 | 5 | 5 | 5 | 5 | 5 | 5 | 5 | 5 | 5 | 5 | Herbicidal effect, common lambsquarter ([7]; 40 g./a.): 5; Herbicidal effects, barnyard grass ([8]; 10 g/a): 5; Herbicidal effects, barnyard grass ([8]; 20 g/a): 5; Herbicidal effects, barnyard grass ([8]; 40 g/a): 5; Herbicidal effect, radish ([9]; 10 g./a.): 0; Herbicidal effect, radish ([9]; 20 g./a.): 0; Herbicidal effect, radish ([9]; 40 g./a.): 1
CCCOP(=O)(SCC(=O)N1CCCCC1C)SCC(C)C (stereo not drawn) [Compound 67] | 4 | 5 | 5 | 4 | 5 | 5 | 0 | 0 | 0 | 5 | 5 | 5 | 4 | 4 | 5 | 4 | 4 | 5 | 3 | 4 | Herbicidal effect, common lambsquarter ([7]; 40 g./a.): 5; Herbicidal effects, barnyard grass ([8]; 10 g/a): 5; Herbicidal effects, barnyard grass ([8]; 20 g/a): 5; Herbicidal effects, barnyard grass ([8]; 40 g/a): 5; Herbicidal effect, radish ([9]; 10 g./a.): 0; Herbicidal effect, radish ([9]; 20 g./a.): 0; Herbicidal effect, radish ([9]; 40 g./a.): 0
CCCCCSP(=O)(OCCC)SCC(=O)N1CCCCC1C (stereo not drawn) [Compound 68] | 4 | 4 | 5 | 4 | 4 | 5 | 0 | 0 | 0 | 5 | 5 | 5 | 4 | 4 | 5 | 3 | 4 | 5 | 4 | 4 | Herbicidal effect, common lambsquarter ([7]; 40 g./a.): 5; Herbicidal effects, barnyard grass ([8]; 10 g/a): 5; Herbicidal effects, barnyard grass ([8]; 20 g/a): 5; Herbicidal effects, barnyard grass ([8]; 40 g/a): 5; Herbicidal effect, radish ([9]; 10 g./a.): 0; Herbicidal effect, radish ([9]; 20 g./a.): 0; Herbicidal effect, radish ([9]; 40 g./a.): 0
CCCOP(=O)(SCCC(C)C)SCC(=O)N1CCCCC1C (stereo not drawn) [Compound 69] | 5 | 5 | 5 | 4 | 5 | 5 | 0 | 0 | 1 | 5 | 5 | 5 | 4 | 5 | 5 | 4 | 5 | 5 | 4 | 5 | Herbicidal effect, common lambsquarter ([7]; 40 g./a.): 5; Herbicidal effects, barnyard grass ([8]; 10 g/a): 5; Herbicidal effects, barnyard grass ([8]; 20 g/a): 5; Herbicidal effects, barnyard grass ([8]; 40 g/a): 5; Herbicidal effect, radish ([9]; 10 g./a.): 0; Herbicidal effect, radish ([9]; 20 g./a.): 0; Herbicidal effect, radish ([9]; 40 g./a.): 0
